Experimental data reported in US20240140970A1, “A […], AND PREPARATION METHOD AND USE THEREOF” (ASCENTAWITS PHARMACEUTICALS, LTD., priority 2021, published 2024).
Where “and” joins values, the source holds several entries; their conditions need not be identical. Equal values may be shown once.

Experiments:
[1] = Stability of AST-2660 in human urine at −20° C. and −70° C. for one month (LC-MS/MS); type: in vitro ADME
Description: (§1) The detection method established in example 6 was used to detect the content of AST-2660 in the human urine to be tested.
Matrix: the mixed normal human urine containing an additive Na2HPO4·12H2O. • a: the internal standard working solution: AST-2660-D8 was taken, dissolved with methanol, and diluted to prepare a solution containing about 100 ng per 1 ml. • b: the solution to be tested (no internal standard compound was added to the solution to be tested at this time): it was obtained by taking a blood sample to be tested. • c: the standard working solution (no internal standard compound was added to the standard working solution at this time): an appropriate amount of AST-2660 was taken and accurately weighed, dissolved with methanol and diluted to prepare a solution containing about 1.0 mg per 1 ml, which was used as the standard working stock solution. An appropriate amount of the standard working stock solution was taken, added with the matrix and diluted to prepare standard working solutions with different concentrations containing about 200 ng, 160 ng, 100 ng, 50 ng, 10 ng, 2.0 ng, 1.0 ng and 0.5 ng per 1 ml, respectively. (The solution was stored at −70° C.) • d: the quality control sample solution: an appropriate amount of AST-2660 was taken and accurately weighed, dissolved with methanol, and diluted to prepare a solution containing about 10 μg per 1 ml, which was used as the quality control working stock solution. An appropriate amount of the quality control working stock solution was taken, and added with the matrix to prepare quality control working solutions with different concentrations containing about 150 ng, 60 ng, 15 ng, 1.5 ng and 0.5 ng per 1 ml. (The solution was stored at −70° C.)
The solution to be tested, the standard working solution and the quality control sample solution were thawed at room temperature and mixed uniformly. 100 μl of the above solution was respectively taken, added with 20 μl of the internal standard and 500 μl of methanol, and vortexed for 3 minutes to mix uniformly, and then centrifuged for 30 minutes at 2143 rcf. 450 μl of supernatant was taken, and then centrifuged for 10 minutes in a 96-well plate at 2143 rcf. It was obtained by taking 300 μl of supernatant.
Liquid phase conditions: A SHARC 1, 3 μm, 2.1*50 mm or chromatograph column with equivalent performance was used; methanol solution containing low content of ammonium acetate was used; mobile phase B was acetonitrile; the gradient elution was performed according to the following table; column temperature: 20° C.; injection volume: 5 μl.
Mass spectrometric conditions: electrospray ion source with negative ion scanning mode; spray potential: −4500 V; ion source temperature: 500° C.; collision energy (CE): −22 eV; declustering potential (DP): −55V; entrance potential (EP): −10V; collision chamber exit potential (CXP): −16V; dwell time: 100 ms; high purity nitrogen was used for all gases; AST-2660 ions pairs: m/z 147.0→m/z 62.9; the internal standard AST-2660-D8 ion pairs: m/z 155.0→m/z 62.9.
The AST-2660 standard working solution, blank sample, zero concentration sample, solution to be tested and quality control working solution with different concentrations after extraction were respectively taken and injected into LC-MS/MS for detection.
(§2) Calculation results: the relationship function y=f (x) of the ratio of the peak area of AST-2660 to that of the internal standard was obtained from AST-2660 standard working solutions with different concentrations. The ratio of the peak area of AST-2660 to that of the internal standard was determined from the solution to be tested after extraction, and substituted into the relationship function y=f (x) to calculate the concentration of the metabolite II in the solution to be tested.

[2] = Stability of treated (extracted) human urine samples of AST-2660 at room temperature (LC-MS/MS); type: physicochemical; conditions: 94 hours at room temperature
Description: as §1
Matrix: the mixed normal human urine containing an additive Na2HPO4·12H2O. • a: the internal standard working solution: AST-2660-D8 was taken, dissolved with methanol, and diluted to prepare a solution containing about 100 ng per 1 ml. • b: the solution to be tested (no internal standard compound was added to the solution to be tested at this time): it was obtained by taking a blood sample to be tested. • c: the standard working solution (no internal standard compound was added to the standard working solution at this time): an appropriate amount of AST-2660 was taken and accurately weighed, dissolved with methanol and diluted to prepare a solution containing about 1.0 mg per 1 ml, which was used as the standard working stock solution. […]
as §2

[3] = DilQC (10-fold dilution) nominal 1500 ng/ml, 32 days at −20° C.
[4] = DilQC (10-fold dilution) nominal 1500 ng/ml, 32 days at −70° C.
[5] = QC1 nominal 1.50 ng/ml, 32 days at −70° C. (actually tested on day 34)
[6] = QC4 nominal 150 ng/ml, 32 days at −20° C.
[7] = QC4 nominal 150 ng/ml, 32 days at −70° C.

O=P([O-])(N1CC1)N1CC1.[Na+] [AST-2660]
reduction of AST-2660 content ([1]; 32 days of storage at −20° C.): ~90% | change of AST-2660 content (in words) ([1]; 32 days of storage at −70° C.): almost no reduction | AST-2660 concentration, Mean value [1, 3]: 7.23 ng/mL | AST-2660 concentration, single replicates [1, 3]: 6.87 ng/mL and 7.70 ng/mL and 7.73 ng/mL and 6.60 ng/mL | RE (%) vs nominal [1, 3]: −99.5% | AST-2660 concentration, Mean value [1, 4]: 1483 ng/mL | AST-2660 concentration, single replicates [1, 4]: 1570 ng/mL and 1400 ng/mL and 1470 ng/mL and 1490 ng/mL | RE (%) vs nominal [1, 4]: −1.2% | AST-2660 concentration, single replicates ([1]; QC1 nominal 1.50 ng/ml, 32 days at −20° C.): <LLOQ (0.500) ng/ml | AST-2660 concentration, Mean value [1, 5]: 1.71 ng/mL | AST-2660 concentration, single replicates [1, 5]: 1.53 ng/mL and 1.97 ng/mL and 1.72 ng/mL and 1.60 ng/mL | RE (%) vs nominal [1, 5]: 13.7% | AST-2660 concentration, Mean value [1, 6]: 13.4 ng/mL | AST-2660 concentration, single replicates [1, 6]: 13.1 ng/mL and 12.4 ng/mL and 12.9 ng/mL and 15.2 ng/mL | RE (%) vs nominal [1, 6]: −91.1% | AST-2660 concentration, Mean value [1, 7]: 161 ng/mL | AST-2660 concentration, single replicates [1, 7]: 155 ng/mL and 159 ng/mL and 161 ng/mL and 168 ng/mL | RE (%) vs nominal [1, 7]: 7.2% | stability (in words) [2]: stable
